ChEMBL document CHEMBL1123796, “New antitumor agents containing the anthracene nucleus” (1987)

Assays:
Type in all cases: functional
RPMI-8226 [1] = assay: Effect on DNA synthesis was determined by incorporation of radioligand into 8226 human myeloma cells at a concentration of 0.01 ug/mL
RPMI-8226 [2] = assay: Effect on DNA synthesis was determined by incorporation of radioligand into 8226 human myeloma cells at a concentration of 0.3 ug/mL (*: >50% cell kill)
RPMI-8226 [3] = assay: Effect on DNA synthesis was determined by incorporation of radioligand into 8226 human myeloma cells at a concentration of 1 ug/mL. (*: >1 log cell kill)
RPMI-8226 [4] = assay: Effect on RNA synthesis was determined by incorporation of radioligand into 8226 human myeloma cells at a concentration of 0.5 ug/mL. (*: >1 log cell kill)
RPMI-8226 [5] = assay: Effect on RNA synthesis was determined by incorporation of radioligand into 8226 human myeloma cells at a concentration of 0.01 ug/mL
[6] = Tested in vitro for inhibitory activity of human tumor cell growth against HEC 1A endometrial tumor, by using clonogenic assays.; conditions: read-out: ID50 (the source's name)
L1210 [7] = assay: Antileukemic activity against L-1210 cells in mice at a dose of 30 mg/kg administered intraperitoneally after 5 day treatment; conditions: Mus musculus, L1210, ip, 120 h, route intraperitoneal
L1210 [8] = assay: Antileukemic activity against L-1210 cells in mice at a dose of 37.5 mg/kg administered intraperitoneally after 5 day treatment; conditions: Mus musculus, L1210, ip, 120 h, route intraperitoneal
L1210 [9] = assay: Antileukemic activity against L-1210 cells in mice at a dose of 60 mg/kg administered intraperitoneally after 1 day treatment; conditions: Mus musculus, L1210, ip, 24 h, route intraperitoneal
L1210 [10] = assay: Effect on protein synthesis was determined by incorporation of radioligand into L1210 murine leukemia at a concentration of 10 ug/mL (*: >1 log cell kill); conditions: Mus musculus
L1210 [11] = assay: Effect on RNA synthesis was determined by incorporation of radioligand into L1210 murine leukemia at a concentration of 0.5 ug/mL. (*: >1 log cell kill); conditions: Mus musculus
L1210 [12] = assay: Antileukemic activity against L-1210 cells in mice at a dose of 60 mg/kg administered intraperitoneally after 5 day treatment; conditions: Mus musculus, L1210, ip, 120 h, route intraperitoneal
L1210 [13] = assay: Antileukemic activity against L-1210 cells in mice at a dose of 70 mg/kg administered intraperitoneally after 1 day treatment; conditions: Mus musculus, L1210, ip, 24 h, route intraperitoneal
L1210 [14] = assay: Antileukemic activity against L-1210 cells in mice at a dose of 70 mg/kg administered intraperitoneally after 5 day treatment; conditions: Mus musculus, L1210, ip, 120 h, route intraperitoneal
L1210 [15] = assay: Antileukemic activity against L-1210 cells in mice at a dose of 80 mg/kg administered intraperitoneally after 5 day treatment; conditions: Mus musculus, L1210, ip, 120 h, route intraperitoneal
L1210 [16] = assay: Effect on RNA synthesis was determined by incorporation of radioligand into L1210 murine leukemia at a concentration of 0.3 ug/mL (*: >50% cell kill); conditions: Mus musculus
L1210 [17] = assay: Effect on protein synthesis was determined by incorporation of radioligand into L1210 murine leukemia at a concentration of 0.5 ug/mL. (*: >1 log cell kill); conditions: Mus musculus
L1210 [18] = assay: Effect on protein synthesis was determined by incorporation of radioligand into L1210 murine leukemia at a concentration of 1 ug/mL. (*: >1 log cell kill); conditions: Mus musculus
L1210 [19] = assay: Effect on DNA synthesis was determined by incorporation of radioligand into L1210 murine leukemia at a concentration of 0.01 ug/mL; conditions: Mus musculus
L1210 [20] = assay: Effect on DNA synthesis was determined by incorporation of radioligand into L1210 murine leukemia at a concentration of 10 ug/mL (*: >1 log cell kill); conditions: Mus musculus
L1210 [21] = assay: Effect on RNA synthesis was determined by incorporation of radioligand into L1210 murine leukemia at a concentration of 0.01 ug/mL; conditions: Mus musculus
Mus musculus [22] = assay: Tested for high-dose toxicity in mice at a significant dose of 70 mg/kg administered intraperitoneally after 5 days of treatment; conditions: route intraperitoneal
Mus musculus [23] = assay: Tested for high-dose toxicity in mice at a significant dose of 90 mg/kg administered intraperitoneally after 1 days of treatment; conditions: route intraperitoneal
Mus musculus [24] = assay: Tested for percent average weekly weight change in mice at a significant dose of 80 mg/kg administered intraperitoneally; conditions: route intraperitoneal
Mus musculus [25] = assay: Tested for skin toxicity in BALB/c mice administered intraintradermally and involved concentric circular areas of ulceration
Mus musculus [26] = assay: Tested for skin toxicity in BALB/c mice at a significant dose of 0.25 mg/kg administered intraintradermally and involved concentric circular areas of ulceration
Mus musculus [27] = assay: Tested for skin toxicity in BALB/c mice at a significant dose of 0.75 mg/kg administered intraintradermally and involved concentric circular areas of induration.
Mus musculus [28] = assay: Tested for skin toxicity in BALB/c mice at a significant dose of 0.75 mg/kg administered intraintradermally and involved concentric circular areas of ulceration
Mus musculus [29] = assay: Tested for skin toxicity in BALB/c mice at a significant dose of 2.00 mg/kg administered intraintradermally and involved concentric circular areas of induration.
Mus musculus [30] = assay: Tested for skin toxicity in BALB/c mice at a significant dose of 2.5 mg/kg administered intraintradermally and involved concentric circular areas of erythema
Mus musculus [31] = assay: Tested for percent average weekly weight change in mice at a significant dose of 37.5 mg/kg administered intraperitoneally after 5 days of treatment; conditions: route intraperitoneal
Mus musculus [32] = assay: Tested for percent average weekly weight change in mice at a significant dose of 70 mg/kg administered intraperitoneally after 5 days of treatment; conditions: route intraperitoneal
Mus musculus [33] = assay: Tested for percent average weekly weight change in mice at a significant dose of 90 mg/kg administered intraperitoneally after 1 days of treatment; conditions: route intraperitoneal
Mus musculus [34] = assay: Tested for percent average weekly weight change in mice at a significant dose of 90 mg/kg administered intraperitoneally after 5 days of treatment; conditions: route intraperitoneal
P388 [35] = assay: Antileukemic activity against P-388 in mice at a dose of 60 mg/kg administered intraperitoneally after 5 day treatment; conditions: Mus musculus, P388, ip, 120 h, route intraperitoneal
P388 [36] = assay: Antileukemic activity against P-388 in mice at a dose of 70 mg/kg administered intraperitoneally after 1 day treatment; conditions: Mus musculus, P388, ip, 24 h, route intraperitoneal
P388 [37] = assay: Antileukemic activity against P-388 in mice at a dose of 70 mg/kg administered intraperitoneally after 5 day treatment; conditions: Mus musculus, P388, ip, 120 h, route intraperitoneal
P388 [38] = assay: Antileukemic activity against P-388 in mice at a dose of 80 mg/kg administered intraperitoneally after 5 day treatment; conditions: Mus musculus, P388, ip, 120 h, route intraperitoneal
P388 [39] = assay: Antileukemic activity against P-388 in mice at a dose of 90 mg/kg administered intraperitoneally after 1 day treatment; conditions: Mus musculus, P388, ip, 24 h, route intraperitoneal
P388 [40] = assay: Antileukemic activity against P-388 in mice at a dose of 37.5 mg/kg administered intraperitoneally after 5 day treatment; conditions: Mus musculus, P388, ip, 120 h, route intraperitoneal
P388 [41] = assay: Antileukemic activity against P-388 in mice at a dose of 60 mg/kg administered intraperitoneally after 1 day treatment; conditions: Mus musculus, P388, ip, 24 h, route intraperitoneal
WiDr = assay: Tested in vitro for inhibitory activity of human tumor cell growth against WIDR colon tumor, by using clonogenic assays.; conditions: read-out: ID50 (the source's name)

CN(C)CCNCc1c2ccccc2c(CNCCN(C)C)c2ccccc12
inhibition at 0.01 µg/mL (RPMI-8226 [1]): 0% | inhibition at 0.3 µg/mL (RPMI-8226 [2]): 8.4% | inhibition at 1 µg/mL (RPMI-8226 [3]): 21.1% | inhibition at 0.5 µg/mL (RPMI-8226 [4]): 7.3% | inhibition at 0.01 µg/mL (RPMI-8226 [5]): 0% | IC50 [6]: 360 nM | ILS at 30 mg/kg (L1210 [7]): 5% | ILS at 37.5 mg/kg (L1210 [8]): 11% | ILS at 60 mg/kg (L1210 [9]): 17% | inhibition at 10 µg/mL (L1210 [10]): 87.3% | inhibition at 0.5 µg/mL (L1210 [11]): 7.2% | ILS at 60 mg/kg (L1210 [12]): 27% | ILS at 70 mg/kg (L1210 [13]): 40% | ILS at 70 mg/kg (L1210 [14]): 30% | ILS at 80 mg/kg (L1210 [15]): 15% | inhibition at 0.3 µg/mL (L1210 [16]): 0% | inhibition at 0.5 µg/mL (L1210 [17]): 21.8% | inhibition at 1 µg/mL (L1210 [18]): 31.2% | inhibition at 0.01 µg/mL (L1210 [19]): 0% | inhibition at 10 µg/mL (L1210 [20]): 75.7% | inhibition at 0.01 µg/mL (L1210 [21]): 0% | Lethality (Mus musculus [22]): 10% | Median day of death (Mus musculus [22]): 0 | Lethality (Mus musculus [23]): 20% | Median day of death (Mus musculus [23]): 10 | Lethality (Mus musculus [24]): -3% | Extent of skin lesions (Mus musculus [25]): 1.9 cm**2 | Extent of skin lesions (Mus musculus [26]): 0.2 cm**2 | Extent of skin lesions (Mus musculus [27]): 1.7 cm**2 | Extent of skin lesions (Mus musculus [28]): 1 cm**2 | Extent of skin lesions (Mus musculus [29]): 5.3 cm**2 | Extent of skin lesions (Mus musculus [30]): 5 cm**2 | Average weekly weight change (Mus musculus [31]): -7% | Average weekly weight change (Mus musculus [32]): -7% | Average weekly weight change (Mus musculus [33]): -5% | Average weekly weight change (Mus musculus [34]): -11% | ILS at 60 mg/kg (P388 [35]): 25% | ILS at 70 mg/kg (P388 [36]): 27% | ILS at 70 mg/kg (P388 [37]): 10% | ILS at 80 mg/kg (P388 [38]): 0% | ILS at 90 mg/kg (P388 [39]): -10% | ILS at 37.5 mg/kg (P388 [40]): 0% | ILS at 60 mg/kg (P388 [41]): 11% | IC50 (WiDr): 180 nM
